Here are results for 32 compounds from article PMC5734940 (Toxicology and applied pharmacology, 2017).

Like-named read-outs stand apart in the source and are kept apart here.

For data set [1], the system named is Human iPSC-derived cardiomyocytes (iCell cardiomyocytes). The data set can be described thus: Calcium flux assay. Conditions: for Ca2+-flux phenotype in words: text to Figure 3; for Effect on beat frequency (in words): at 10 and/or 30 μM, PAHs; for Typical phenotypic response of calcium-flux signal trace: 30 μM, after 30 minutes of exposure, Figure 3.
Data set [2] shares this test system. Format: cell-based.
The test system is the same in data set [3]. Conditions: 30 min after treatment, JC-10.
Data set [4] shares this test system. The conditions noted are these: for Cytotoxicity (in words): 24 hrs, concentrations up to 30 μM.
[5] abbreviates: at both short-term (30 min) and longer-term exposures (24 hrs).
Setting [6] is: primarily at 24 hrs of exposure, Figure 5.

For the compound `C[n+]1ccc(-c2ccccc2)cc1.[I-]` [1-methyl-4-phenylpyridinium iodide, 1-Methyl-4-phenylpyridinium iodide (MPP+), reference compound], in data set [1], the “Ca2+-flux phenotype in words” value was “decrease in the peak frequency concomitant with an increase in the average peak width”. Further, the “Cardiotoxic selectivity for peak frequency (selective = ratio ≥3)” value in data set [2] (setting [5]) is given as “selective”.
For the compound `Brc1ccc(Oc2cc(Br)c(Br)cc2Br)c(Br)c1` [2,2′,4,4′,5-pentabromodiphenyl ether, 2,2′,4,4′,5-Pentabromodiphenyl ether], the “Cardiotoxic selectivity for peak frequency (selective = ratio ≥3)” value in data set [2] (setting [5]) is reported as “selective”.
The same measure, in the same setting: next, `Brc1ccc(Oc2ccc(Br)cc2Br)c(Br)c1` [2,2′,4,4′-tetrabromodiphenyl ether, 2,2′4,4′-Tetrabromodiphenyl ether]: “selective”.
Consider `CCCCC(CC)COP(=O)(Oc1ccccc1)Oc1ccccc1` (centres unmarked) [2-ethylhexyl diphenyl phosphate, 2- Ethylhexyl diphenyl phosphate (EHDP)], for which the “Effect on mitochondria / mitochondria potential (in words)” value in data set [3] is given as “selectively decreased mitochondria potential”.
For `N#CCCNCCC#N` [3,3′-iminodipropionitrile, 3,3′-Iminodipropionitrile], the “Response in the Calcein AM readout” value in data set [4] (setting [6]) is on record as “positive response”.
For `c1cc2c3c(c1)ccc1cccc(c13)C2` [4-H-cyclopenta(d,e,f)phenanthrene, 4-H-Cyclopenta(d,e,f)phenanthrene], in data set [1], the “Effect on beat frequency (in words)” value is “positive but generally weak effect”.
In the case of `C1=Cc2cccc3cccc1c23` [acenaphthylene, Acenaphthylene], the “Effect on beat frequency (in words)” value in data set [1] was “positive but generally weak effect”. In addition, the “Cardiotoxic selectivity for peak frequency (selective = ratio ≥3)” value in data set [2] (setting [5]) is reported as “selective”.
Regarding `c1ccc2cc3ccccc3cc2c1` [anthracene, Anthracene], the “Response in the Calcein AM readout” value in data set [4] (setting [6]) is reported as “positive response”.
Take `c1ccc2cc3c(ccc4ccccc43)cc2c1` [benz(a)anthracene, Benz(a)anthracene]: the “Response in the Calcein AM readout” value in data set [4] (setting [6]) was “positive response”. The “Effect on beat frequency (in words)” value in data set [1] is listed as “positive but generally weak effect”.
Consider `c1ccc2c(c1)cc1ccc3cccc4ccc2c1c34` [benzo(a)pyrene, Benzo(a)pyrene], for which the “Effect on beat frequency (in words)” value in data set [1] is “positive but generally weak effect”.
Regarding `c1ccc2c(c1)-c1cccc3c1c-2cc1ccccc13` [benzo(b)fluoranthene, Benzo(b)fluoranthene], the “Response in the Calcein AM readout” value in data set [4] (setting [6]) was “positive response”. In data set [1], the “Effect on beat frequency (in words)” value is “positive but generally weak effect”.
For `c1ccc2c(c1)c1cccc3ccc4cccc2c4c31` [benzo(e)pyrene, Benzo(e)pyrene], the “Response in the Calcein AM readout” value in data set [4] (setting [6]) was “positive response”. In data set [1], the “Typical phenotypic response of calcium-flux signal trace” value is “mild increases in peak frequency” and the “Effect on beat frequency (in words)” value is recorded as “positive but generally weak effect”.
The matching figures for `c1ccc2cc3c(cc2c1)-c1cccc2cccc-3c12` [benzo(k)fluoranthene, Benzo(k)fluoranthene]: “positive response”, “mild increases in peak frequency” and “positive but generally weak effect”.
Take `COc1ccc2cc3[n+](cc2c1OC)CCc1cc2c(cc1-3)OCO2` [berberine chloride, Berberine chloride, reference compound]: the “Ca2+-flux phenotype in words” value in data set [1] is given as “decrease in the peak frequency concomitant with an increase in the average peak width”. Further, the “Cardiotoxic selectivity for peak frequency (selective = ratio ≥3)” value in data set [2] (setting [5]) is given as “selective”.
Regarding `O=C(O)CCCC[C@@H]1SC[C@@H]2NC(=O)N[C@@H]21` [biotin, Biotin, reference compound], in data set [1], the “Typical phenotypic response of calcium-flux signal trace” value is reported as “unaffected regular Ca2+-flux” and the “Ca2+-flux phenotype in words” value is on record as “regular beating pattern”.
Take `CCOP(=S)(OCC)Oc1nc(Cl)c(Cl)cc1Cl` [chlorpyrifos, Chlorpyrifos]: the “Effect on mitochondria / mitochondria potential (in words)” value in data set [3] is listed as “selectively decreased mitochondria potential”.
Take `CC1(C)[C@H](C(=O)O[C@H](C#N)c2cccc(Oc3ccccc3)c2)[C@@H]1C=C(Br)Br` [deltamethrin, Deltamethrin]: the “Cardiotoxic selectivity for peak frequency (selective = ratio ≥3)” value in data set [2] (setting [5]) is recorded as “selective”.
`CCCCC(CC)COC(=O)c1ccccc1C(=O)OCC(CC)CCCC` (centres unmarked) [di(2-ethylhexyl) phthalate, Di(2-ethylhexyl) phthalate]: in data set [2] (setting [5]), the “Cardiotoxic selectivity for peak frequency (selective = ratio ≥3)” value was “selective”.
Regarding `CN1C(=O)CN=C(c2ccccc2)c2cc(Cl)ccc21` [diazepam, Diazepam, reference compound], the “Effect on peak frequency (in words)” value in data set [1] was “altered peak frequency”.
As to `c1ccc2c(c1)Cc1ccccc1-2` [fluorene, Fluorene], the “Effect on beat frequency (in words)” value in data set [1] was “positive but generally weak effect”. Also, the “Cardiotoxic selectivity for peak frequency (selective = ratio ≥3)” value in data set [2] (setting [5]) was “selective”.
As to `Cl[C@H]1[C@H](Cl)[C@@H](Cl)[C@@H](Cl)[C@H](Cl)[C@H]1Cl` [lindane, Lindane], the “Effect on mitochondria / mitochondria potential (in words)” value in data set [3] is given as “selectively decreased mitochondria potential”.
With `CCCCCC` [n-hexane, n-Hexane], the “Response in the Calcein AM readout” value in data set [4] is recorded as “positive response”. In data set [4] (human), the “POD, Calcein AM readout” value is “below 30 μM”. Besides, in data set [1], the “Effect on peak frequency (in words)” value is “altered peak frequency”.
`c1ccc2ccccc2c1` [naphthalene, Naphthalene]: the “Effect on beat frequency (in words)” value in data set [1] is given as “positive but generally weak effect”.
With `CCOP(=S)(OCC)Oc1ccc([N+](=O)[O-])cc1` [parathion, Parathion], in data set [3], the “Effect on mitochondria / mitochondria potential (in words)” value is on record as “selectively decreased mitochondria potential”.
Take `CC1(C)C(C=C(Cl)Cl)C1C(=O)OCc1cccc(Oc2ccccc2)c1` (centres unmarked) [permethrin, Permethrin]: the “Cardiotoxic selectivity for peak frequency (selective = ratio ≥3)” value in data set [2] (setting [5]) is given as “selective”.
Regarding `c1ccc2c(c1)ccc1ccccc12` [phenanthrene, Phenanthrene], the “Effect on beat frequency (in words)” value in data set [1] is “positive but generally weak effect”.
For `c1cc2ccc3cccc4ccc(c1)c2c34` [pyrene, Pyrene], in data set [1], the “Effect on beat frequency (in words)” value is “positive but generally weak effect”. In addition, the “Cardiotoxic selectivity for peak frequency (selective = ratio ≥3)” value in data set [2] (setting [5]) was “selective”.
Consider `C=C(C)[C@H]1Cc2c(ccc3c2O[C@@H]2COc4cc(OC)c(OC)cc4[C@@H]2C3=O)O1` [rotenone, Rotenone], for which the “Cytotoxicity (in words)” value in data set [4] is listed as “highly cytotoxic”. Further, the “POD values in most other endpoints queried, including cytotoxicity” value in data set [1] (endpoints other than JC-10 at 30 min) is “below 30 μM”. Moreover, the “Ca2+-flux phenotype in words” value in data set [1] is reported as “Negative inotropic effects”.
In the case of `CC(C)(C)C(O)(CCc1ccc(Cl)cc1)Cn1cncn1` (centres unmarked) [tebuconazole, Tebuconazole], the “Effect on mitochondria / mitochondria potential (in words)” value in data set [3] is listed as “selectively decreased mitochondria potential”.
The same measure, in the same setting: next, `O=P(Oc1ccccc1)(Oc1ccccc1)Oc1ccccc1` [triphenyl phosphate, Triphenyl phosphate]: “selectively decreased mitochondria potential”.
As for `CC(C)[C@@H]1NC(=O)[C@H](C)OC(=O)[C@@H](C(C)C)NC(=O)[C@@H](C(C)C)OC(=O)[C@H](C(C)C)NC(=O)[C@H](C)OC(=O)[C@@H](C(C)C)NC(=O)[C@@H](C(C)C)OC(=O)[C@H](C(C)C)NC(=O)[C@H](C)OC(=O)[C@@H](C(C)C)NC(=O)[C@@H](C(C)C)OC1=O` [valinomycin, Valinomycin, reference compound], the “Cytotoxicity (in words)” value in data set [4] is “highly cytotoxic”. For the same compound, the “Effect on mitochondria / mitochondria potential (in words)” value in data set [3] is “strong effect”.
For Phenol, isopropylated, phosphate (3:1), in data set [1], the “Shape of concentration response for cardiomyocyte peak frequency” value is “non-monotonic concentration responses”. Besides, the “Cardiotoxic selectivity for peak frequency (selective = ratio ≥3)” value in data set [2] is reported as “selective”.
